From paper PMC7767399, “Targeted Isolation of Anti-Trypanosomal Naphthofuran-Quinone Compounds from the Mangrove Plant Avicennia lanata” (Marine Drugs, 2020)
Values after ≈ are worked out from the molar mass of the structure shown. Like-named read-outs stand apart in the source and are kept apart here.

Columns and labels:
[1] = tested on: epimastigotes of T. cruzi; set-up: method as in PMID 8788584; conditions: read-out: 50% culture growth inhibition (GI50); cited from earlier work
[2] = tested on: epimastigotes of T. cruzi; set-up: method as in doi:10.1016/0960-894X(95)00248-R; conditions: cited from earlier work
PNT2A cells = experiment: Cytotoxicity Alamar Blue assay on normal prostatic epithelial cells; type: cell-based, human; conditions: 100 μg/mL, % of DMSO control values, n = 3
Experimental: Meanwhile, the initial screening for cytotoxicity activity of the isolated compounds was performed on human normal prostatic epithelial cells (PNT2A) at 100 μg/mL. […] In the initial screening, if the cell viability is less than 60%, a concentration response test at 0.3 to 300 μg/mL was carried on.
The pure compounds from mangrove plant, A. lanata were tested for cytotoxicity in vitro against human normal prostatic epithelial cell line (PNT2A) derived from ECACC (Sigma-Aldrich, Dorset, UK).
The cytotoxicity activity of the pure compounds was determined using the well-established Alamar Blue™ redox-based 96-well microplate assay, in which the screening procedure was modified from. PNT2A cells were seeded into 96-well microplate assay at density of 0.5 × 10^4 cells/well in 100 μL of Dulbecco’s modified Eagle’s medium (DMEM; Invitrogen, Paisley, UK) and incubated at 37 °C, 5% CO2 with a humidified atmosphere for 24 h. […] The microplate plate was incubated at 37 °C, 5% CO2 with a humidified atmosphere for 24 h, then 10 μL of Alamar blue was added. The microplate was further incubated for another 20 h, then the fluorescence was measured using a Wallac Victor 2 microplate reader (Perkin Elmer, Cambridge, UK) (excitation: 530 nm, emission 590 nm). The results were calculated as % of the DMSO control values.

T. b. brucei = experiment: Anti-trypanosomal Alamar blue 96-well microplate assay; type: cell-based, Trypanosoma brucei brucei S427 (blood stream form); conditions: for MIC: read-out: MIC (minimum inhibitory concentration necessary to achieve 90% growth inhibition); for anti-trypanosomal activity (in words): screening of extract/fractions at 20, 10 and 5 μg/mL, pure compounds by MIC
Experimental: Each fraction was screened at different concentrations of 20, 10 and 5 μg/mL. The assay was performed in duplicate for each sample.
MIC assays were performed for samples having greater than 90% inhibition at a concentration of 20 μM in the initial screening campaign. The MIC values of the isolated compounds against T. b. brucei were determined by averaging the results of two independent assays. The concentrations were averaged and converted to μM.
The activity of the pure compounds was tested in vitro against the blood stream form of Trypanosomal brucei brucei (T. b. brucei) S427. The activity of the samples was determined using the well-established Alamar blue™ 96-well microplate assay, in which the screening procedure was modified from the microplate Alamar blue assay, to determine the drug sensitivity of African trypanosomes. The samples were initially screened at one concentration (20 μg/mL crude extracts or fractions, 20 μM for pure compounds) to determine their in vitro activity. Stock solutions of tested samples in DMSO (Acros Organics BVBA, Janssen Pharmaceutical, Geel, Belgium) were prepared at concentrations of 10 mg/mL (extracts) or 10 mM for pure compounds. The concentration of DMSO should not exceed 0.5% of the final test solution.

[3] = tested on: Giardia lamblia trophozoites; set-up: method as in doi:10.29356/jmcs.v56i2.305; conditions: read-out: IC50 (giardicidal activity); cited from earlier work
T. b. rhodesiense = tested on: T. b. rhodesiense; set-up: method as in PMID 21438586; conditions: T. b. rhodesiense in vitro bloodstream trypomastigotes; cited from earlier work
T. cruzi = tested on: T. cruzi; set-up: method as in earlier work; conditions: cited from earlier work
[4] = tested on: bloodstream strain of T. b. brucei; set-up: method as in PMID 17637068; conditions: cited from earlier work
[5] = different strains of T. cruzi epimastigotes, at 13–17 μM of the tested compounds
[6] = T. cruzi epimastigotes, compounds with two methoxy groups on the benzene ring
[7] = T. b. brucei, two independent assays
[8] = Trypanosoma brucei, T. b. brucei, two independent assays

## CC1OC2=C(C(=O)c3ccccc3C2=O)C1(C)C (single isomer, unassigned; (-)) [(−)-2,3,3-trimethyl-2-3-dihydronaphtho [2,3-b]furan-4,9-quinone]
[1]
  GI50: 2.1 to 5.2 µM

## COc1ccc2c(c1)C(=O)c1cc(C(C)O)oc1C2=O (stereo not drawn) [2-(1-hydroxyethyl)-6-methoxynaphtho[2,3-b]furan-4,9-quinone]
[2]; [5]
  growth inhibition (GI): 100%

## COc1ccc2c(c1OC)C(=O)c1oc(C(C)O)cc1C2=O (stereo not drawn) [2-(1-hydroxyethyl)-7,8-dimethoxynaphtho[2,3-b]furan-4,9-quinone]
[2]; [6]
  growth inhibition (GI): 22%

## COc1ccc2c(c1)C(=O)c1cc(C(C)=O)oc1C2=O [2-acetyl-6-methoxynaphtho[2,3-b]furan4,9-quinone]
[2]; [5]
  growth inhibition (GI): 100%

## COc1ccc2c(c1OC)C(=O)c1oc(C(C)=O)cc1C2=O [2-acetyl-7,8-dimethoxynaphtho[2,3-b] furan-4,9-quinone]
[2]; [6]
  growth inhibition (GI): 45%

## COc1ccc2c(c1OC)C(=O)c1ccoc1C2=O [5,6-dimethoxynaphtho [2,3-b]furan-4,9-quinone]
[2]; [6]
  growth inhibition (GI): 45%

## COc1ccc2c(c1OC)C(=O)c1occc1C2=O [7,8-dimethoxynaphtho[2,3-b]furan-4,9-quinone]
[2]; [6]
  growth inhibition (GI): 25%

## CC(C)(O)C1Cc2c(c(O)c3ccccc3c2O)O1 (stereo not drawn) [Compound 1, 2-(2-hydroxypropan-2-yl)-2,3-dihydronaphtho-[2,3-b] furan-4,9-diol]
PNT2A cells
  Cell viability, % of DMSO control: 86.1%
T. b. brucei; [7]
  MIC: 12.50 µM (≈ 3.25 µg/mL)
T. b. brucei; [8]
  MIC: 12.5 µM (≈ 3.25 µg/mL)

## CC(C)=CCC12OC(C(C)(C)O)CC1=C(O)c1ccccc1C2=O (stereo not drawn) [Compound 2, glycosemiquinone]
PNT2A cells
  Cell viability, % of DMSO control: 86.1%
T. b. brucei; [7]
  MIC: 12.50 µM (≈ 4.11 µg/mL)
T. b. brucei; [8]
  MIC: 12.5 µM (≈ 4.11 µg/mL)

## COc1c2c(c(OC)c3ccccc13)OC(C(C)(C)O)C2 (stereo not drawn) [Compound 3, avicenol C]
PNT2A cells
  Cell viability, % of DMSO control: 78.3%
T. b. brucei; [8]
  MIC: 6.25 µM (≈ 1.8 µg/mL)

## CC(C)(O)c1cc2c(o1)C(=O)c1ccccc1C2=O [Compound 4, avicequinone C]
PNT2A cells
  Cell viability, % of DMSO control: 68.6%
T. b. brucei; [8]
  MIC: 3.12 µM (≈ 0.8 µg/mL)

## CC(C)=CCC12OC(C(C)(C)O)CC1C(=O)c1ccccc1C2=O (stereo not drawn) [Compound 5, glycoquinone]
PNT2A cells
  Cell viability, % of DMSO control: 80.3%
T. b. brucei; [7]
  MIC: 12.50 µM (≈ 4.11 µg/mL)
T. b. brucei; [8]
  MIC: 12.5 µM (≈ 4.11 µg/mL)

## CC1(C)CC[C@]2(C)CC=C3[C@]4(C)CC[C@H]5C(C)(C)C(=O)CC[C@]5(C)[C@H]4CC[C@@]3(C)[C@@H]2C1 [Compound 6, taraxerone]
[3]
  IC50: 26.7 µM
PNT2A cells
  Cell viability, % of DMSO control: 88.8%
T. b. brucei; T. b. brucei
  anti-trypanosomal activity (in words): inactive
T. b. brucei; [8]
  MIC: 154 µM (≈ 65.5 µg/mL)

## CC1(C)CC[C@]2(C)CC=C3[C@]4(C)CC[C@H]5C(C)(C)[C@@H](O)CC[C@]5(C)[C@H]4CC[C@@]3(C)[C@@H]2C1 [Compound 7, taraxerol]
T. b. rhodesiense
  IC50: < 10 µM
[3]
  IC50: 37.8 µM
PNT2A cells
  Cell viability, % of DMSO control: 92.8%
T. b. brucei; T. b. brucei
  anti-trypanosomal activity (in words): inactive
T. b. brucei; [8]
  MIC: 145 µM (≈ 62 µg/mL)

## CC[C@H](CC[C@@H](C)[C@H]1CC[C@H]2[C@@H]3CC=C4C[C@@H](O)CC[C@]4(C)[C@H]3CC[C@]12C)C(C)C [Compound 8, β-sitosterol]
PNT2A cells
  Cell viability, % of DMSO control: 96.2%
T. b. brucei; T. b. brucei
  anti-trypanosomal activity (in words): inactive
T. b. brucei; Trypanosoma brucei
  MIC: 142 µM (≈ 59 µg/mL)

## CC[C@H](/C=C/[C@@H](C)[C@H]1CC[C@H]2[C@@H]3CC=C4C[C@@H](O)CC[C@]4(C)[C@H]3CC[C@]12C)C(C)C [Compound 9, stigmasterol]
PNT2A cells
  Cell viability, % of DMSO control: 98.7%
T. b. brucei; T. b. brucei
  anti-trypanosomal activity (in words): very low activity
T. b. brucei; Trypanosoma brucei
  MIC: 126 µM (≈ 52.2 µg/mL)

## Cc1cccc2c1C(=O)c1c(CO)coc1C2=O [maturone]
T. cruzi
  trypanocidal activity (in words): potent trypanocidal activity

## Cc1ccc(C(=O)Nc2ccc(S(=O)(=O)O)c3cc(S(=O)(=O)O)cc(S(=O)(=O)O)c23)cc1NC(=O)c1cccc(NC(=O)Nc2cccc(C(=O)Nc3cc(C(=O)Nc4ccc(S(=O)(=O)O)c5cc(S(=O)(=O)O)cc(S(=O)(=O)O)c45)ccc3C)c2)c1 [suramin, reference compound]
T. b. brucei; Trypanosoma brucei
  MIC: 0.11 µM (≈ 0.143 µg/mL)

## CC(C)(C)CC(C)(C)c1ccc(OCCO)cc1 [triton X, reference compound]
PNT2A cells
  Cell viability, % of DMSO control: 0.082%

## CC1(C)CC[C@]2(C)CC[C@]3(C)C(=CC[C@@H]4[C@@]5(C)CC[C@H](O)C(C)(C)[C@@H]5CC[C@]43C)[C@@H]2C1 [β-amyrin]
[4]
  IC50: 127 µM
